Read-outs that look alike come from different tables or passages of the source.
Key:
[1] = target: T1, β5 subunit of the human constitutive 20S proteasome (Homo sapiens, UniProt P20618+P28074); test: In vitro β5 proteasome inhibitory activity and kinetic constants (Suc-LLVY-AMC, chymotrypsin-like activity); assay type: biochemical; settings: for K′i (apparent β5 subunit inhibitory activity): human erythrocyte 20S proteasome, chymotrypsin-like activity, 37 °C; for kinact/KI: read-out: k assoc (k2/Ki)
T1 construct: human erythrocyte 20S; purchased R&D Systems, Inc; host or cells: human erythrocytes (native, purified from tissue)
From the text: First, the effect of modifying the macrocycle was investigated for 1–3 by analyzing the inhibitory activity of the β5 subunit of the human constitutive 20S proteasome. […] The k 2/K i ratio represents the second-order rate constant for the reaction of the inhibitor with the target (k assoc), and it indicates the overall inhibitory potency of the inhibitor.
4) Evaluation of in vitro β5 proteasome inhibitory activity and determination of kinetic […]
In vitro proteasome inhibitory activity was measured on 96-well microtiter plates using human erythrocyte 20S proteasome (R&D Systems, Inc.) with the AK-740 Assay Kit for Drug Discovery (Biomol). Reactions were performed at 37 °C in 100 μ L volu mes containing a serial dilution of test samples, 2 μ g/mL 20S proteasome, and 100 μM Suc-L LV Y -AMC for assaying chymotrypsin-like activity, according to the manufacture’s instructions.
Fluorescence was monitored with an infinite M200 microplate reader (Tecan) equipped with 360 nm excitation and […]
The observed rate constant for inhibition, kobs, at each concentration was determined fro m the slope of a semi-logarithmic plot of inhibition versus […]
equation, k obs = k 2[I]/(K i+[I]), to obtain values for Ki and k2. The k2/Ki ratio represents the second -order rate constant for the reaction of the inhibitor with the target. S7)

[2] = tested on: human myeloma Amo-1 cells; test: Anti-proliferation activity against Amo-1 cells (CCK-8); assay type: cell-based
Description: 5) Evaluation of anti -proliferation activity against Amo- 1cells
Cell proliferation assays were performed using the Cell Counting Kit-8 (CCK-8) (Dojindo, CK04) according to the manufacturer’s protocol. In brief, Amo- 1 cells were cultured in RPMI1640 medium containing 10% FBS and 1% penicillin -strepto myc in.
After culturing for 24 h at 37 °C under atmosphere of 5% CO2, the cells were treated with a solution of the compound in DMSO (1 µL) at 37 °C for 72 h. A solution of the CCK-8 (10 µL) was then added to each well and the cells were incubated at 37 °C for 3 h. The absorbance at 450 nm was measured using an Infinite M200 PRO multimode microplate reader (Tecan). The data points were calculated from the average (±standard deviation) of three assays […]
(IC 50) were calculated from curves constructed by plotting cell proliferation (%) versus the log of compound […]
(1 picture or pasted object on this page, not shown here)

[3] = from fit kobs = k2[I]/(Ki + [I])
[4] = second-order rate constant, k2/Ki ratio
[5] = AMO1, Amo-1 cells, 72 h, CCK-8, read-out: IC50 (cell proliferation)

Compound	k 2 [1, 3]	K′i (apparent β5 subunit inhibitory activity) [1]	Ki [1, 3]	kinact/KI [1, 4]	also measured
CC(C)[C@H](NC(=O)N[C@H](C(=O)N[C@H]1C/C=C/CNC(=O)/C=C/[C@H](C(C)C)NC1=O)C(C)C)C(=O)O [Isosyringolin A (3), Isosyringolin A]	0.00339 s⁻¹	590 nM			kinact/KI [1]: 166 M⁻¹ s⁻¹
CC(C)[C@H](NC(=O)N[C@H](C(=O)N[C@H]1/C=C/CCNC(=O)/C=C/[C@H](C(C)C)NC1=O)C(C)C)C(=O)O [Syringolin A (1), Syringolin A, reference compound]	0.00391 s⁻¹	170 nM			k 2 ([1]; as printed in text in s^–1): 3.91 × 10^–3 s^–1; kinact/KI [1]: 1770 M⁻¹ s⁻¹
CCCCCCCCCC(=O)N[C@@H](Cc1ccccc1)C(=O)N[C@H]1/C=C/CCNC(=O)/C=C/[C@H](C(C)C)NC1=O [analogue 4]					IC50 ([2]; AMO1, 72 h, read-out: IC50 (cell proliferation)): 4.33 ± 1.6 nM
CCCCCCCCCC(=O)N[C@@H](Cc1ccccc1)C(=O)N[C@H]1/C=C/CNC(=O)/C=C/[C@H](C(C)C)NC1=O [analogue 8]	0.00551 s⁻¹	20.6 nM	432 nM	12800 M⁻¹ s⁻¹	K i, decrease in affinity relative to 4 ([1]; decrease relative to 4): 6.3 fold; k 2 relative to 4 ([1]; greater than that of the 12-membered 4): 1.29 fold; IC50 [2, 5]: 26.3 ± 9.3 nM
CCCCCCCCCC(=O)N[C@@H](Cc1ccccc1)C(=O)N[C@H]1CCCNC(=O)/C=C/[C@H](C(C)C)NC1=O [analogue 9]	0.00365 s⁻¹	48.2 nM	547 nM	6670 M⁻¹ s⁻¹	
CCCCCCCCCC(=O)N[C@@H](Cc1ccccc1)C(=O)N[C@H]1CC/C=C/CNC(=O)/C=C/[C@H](C(C)C)NC1=O [analogue 10]	0.00134 s⁻¹	79.2 nM	527 nM	2550 M⁻¹ s⁻¹	
CCCCCCCCCC(=O)N[C@@H](Cc1ccccc1)C(=O)N[C@H]1C/C=C/CCNC(=O)/C=C/[C@H](C(C)C)NC1=O [analogue 11]	0.000875 s⁻¹	320 nM	1230 nM	713 M⁻¹ s⁻¹	
CCCCCCCCCC(=O)N[C@@H](Cc1ccccc1)C(=O)N[C@H]1CCCCCNC(=O)/C=C/[C@H](C(C)C)NC1=O [analogue 12]	0.00203 s⁻¹	402 nM	9090 nM	224 M⁻¹ s⁻¹	
C=CC[C@H](NC(=O)[C@H](Cc1ccccc1)NC(=O)CCCCCCCCC)C(=O)N[C@H](/C=C/C(=O)NC)C(C)C [analogue 13]		>1000 nM			inhibitory activity ([1]; β5 subunit): no inhibitory activity
CCCCCCCCCC(=O)N[C@@H](Cc1ccc(-c2ccccc2)cc1)C(=O)N[C@H]1/C=C/CNC(=O)/C=C/[C@H](C(C)C)NC1=O [analogue 14]	0.00428 s⁻¹	0.77 nM	42.2 nM	101000 M⁻¹ s⁻¹	k assoc (k2/Ki) [1, 4]: 101422 s^–1 M^–1; IC50 [2, 5]: 12.1 nM

Source: PMC5642145, “Impact of the structures of macrocyclic Michael acceptors on covalent proteasome inhibition” (Chemical Science, 2017)
